Experimental data from patent US4983593A, “Pharmaceutical composition of dihydropyridine compound” (priority 1988, dated 1991).
Structures can show the parent of a compound that is named as a salt.

Key:
[1] = Solubility improvement of NZ-105 by pulverizing or by formulating other polymers; type: physicochemical; details: pulverizing crystals
Source text: This entailed larger size tablets. […] This also entailed larger size tablets.

[2] = background; cited from earlier work
[3] = background; cited from earlier work; remark: listed apart in the source

CC1=C(C(=O)OCCN(Cc2ccccc2)c2ccccc2)C(c2cccc([N+](=O)[O-])c2)C(P2(=O)OCC(C)(C)CO2)=C(C)N1 (stereo not drawn) [NZ-105, 5-(5,5-dimethyl-1,3,2-dioxaphosphorinane-2-yl)-1,4-dihydro-2,6-dimethyl-4-(3-nitrophenyl)-3-pyridine carboxylic acid 2-(phenyl(phenylmethyl)amino) ethyl ester P-oxide hydrochlorideethanol]
Improvement in solubility (in words) [1]: did not result in an improvement in the solubility of NZ-105 of a degree to promote its bioavailability

COC(=O)C1=C(C)NC(C)=C(C(=O)OCCN(C)Cc2ccccc2)C1c1cccc([N+](=O)[O-])c1 (stereo not drawn) [Nicardipine]
Solubility in water (in words) [2]: very poor solubility in water | Absorption through gastrointestinal tracts (in words) [3]: can not be absorbed through gastrointestinal tracts in a sufficient amount
